In brackets after ≈: the same amount, converted by molar mass.
How the values were obtained:
[1] = in vivo; conditions: mouse
[2] = 1-electron reduction potential / electron affinity; format: physicochemical; conditions: for E7^1 (1-electron reduction potential): Table 1; for electron affinity relative to MIS: in words
[3] = physchem; conditions: octanol:water
[4] = tested on: tumors in vivo; conditions: tumors in vivo and cells; Brown and Lee, 1979; cited from earlier work
[5] = tested on: BALB/c mice; conditions: for acute toxicity relative to MIS: from LD50 data of Table 1
[6] = tested on: hypoxic tumor cells; conditions: cited from earlier work
[7] = accelerated rotarod neurotoxicity test; conditions: for Dose to Give Equivalent Neurotoxicity Relative to MIS: daily dosing, MIS = 1; for factor by which less neurotoxic than MIS: at least a factor of
Text: Performance and toxicity determinations were made after four-and-one-half weeks of daily dosing.

[8] = peak tumor concentration in dogs bearing spontaneous tumors; conditions: for Mean Peak Tumor Concentration: dogs with spontaneous tumors, i.v. bolus 0.5 micromoles/g
[9] = plasma pharmacokinetics and neural tissue exposure (AUC) in dogs; conditions: for AUC / clearance: dog; for AUC: 500 umol/kg; for AUC PNS: peripheral nerve
Experimental: (§1) The imidazoles were formulated in a 0.9% sodium chloride solution at a concentration of 5%. Doses of 0.25-1.0 mmole/kg of each compound were administered to normal adult, male cross-bred dogs and subsequent plasma concentrations were monitored by high performance liquid chromatography. Samples of brain, cerebrospinal fluid (CSF), and peripheral nerve (PNS) were removed for assay from similarly dosed dogs over the same test period.

[10] = for tumor/brain ratio relative to MIS: i.p., EMT6 tumor bearing mice, FIGS. 1 and 2; for crossing of the blood/brain barrier relative to MIS: in words
Experimental: Each test compound was formulated immediately before administration to the animals in Hanks' balanced salt solution at a concentration such that the volume injected intraperitoneally was 0.05 ml per g body weight.
The mice were injected intraperitoneally and at various times were bled by cardiac puncture under anesthesia. Plasma was obtained by centrifugation and stored frozen at -20° C. The tumor and whole brain were taken immediately after cardiac puncture and stored frozen at -20° C.
The brain/plasma ratio is the mean value from all the mice for each compound.

[11] = method of Fujita et al
[12] = tested on: EMT6 tumor cells; test: radiosensitization of EMT6 tumor cells; conditions: in words
[13] = in vivo; conditions: dog
Experimental: as §1

[14] = physchem; conditions: 0.9% saline
[15] = plasma concentration after oral administration of acetate esters versus parent drugs; format: in vivo; conditions: mice, 4 or 5 mmole/kg
[16] = dogs, standardized for 0.5 mmole/kg

O=[N+]([O-])c1nccn1CCN1CCOCC1
LD50 [1]: ~900 mg/kg | E7^1 (1-electron reduction potential) [2]: -390 mV | logP [3]: -0.0862

O=[N+]([O-])c1nccn1CC(O)CCl (stereo not shown) [Compound 1]
LD50 [1]: ~180 mg/kg | E7^1 (1-electron reduction potential) [2]: -384 mV | logP [3]: 0.176

CCOCC(O)Cn1ccnc1[N+](=O)[O-] (stereo not shown) [Compound 2]
LD50 [1]: > 1100 mg/kg | E7^1 (1-electron reduction potential) [2]: -391 mV | logP [3]: 0.104

O=[N+]([O-])c1nccn1CC(O)CF (stereo not shown) [Compound 4]
LD50 [1]: ~900 mg/kg | E7^1 (1-electron reduction potential) [2]: -383 mV | logP [3]: -0.357

O=[N+]([O-])c1nccn1CC(O)CO (stereo not shown) [Compound 6]
LD50 [1]: 3100 mg/kg | E7^1 (1-electron reduction potential) [2]: -389 mV | logP [3]: -0.886

C[S+]([O-])CCn1ccnc1[N+](=O)[O-] (stereo not shown) [Compound 7]
LD50 [1]: ~2000 mg/kg | logP [3]: -1.22

O=C(Cn1ccnc1[N+](=O)[O-])NCC(O)CO (stereo not shown) [Compound 10]
LD50 [1]: > 6100 mg/kg | E7^1 (1-electron reduction potential) [2]: -392 mV | logP [3]: -1.85 | radiosensitizing activity relative to MIS [4]: significantly inferior to MIS

COCC(O)Cn1ccnc1[N+](=O)[O-] (stereo not shown) [MIS, misonidazole, reference compound]
E7^1 (1-electron reduction potential) [2]: -389 mV | Acute LD50 ([5]; BALB/c mice (20-25 g)): 1.8(1.3-2.6) mg/g | radiosensitization at recommended dose ([6]; conventional multifraction radiotherapy regime): suboptimal radiosensitization | radiosensitizing activity relative to metronidazole ([6]; in words): greater radiosensitizing activity of the two compounds | clinical limitation by toxicity ([6]; man, in words): limited by its neurotoxicity | recommended maximum total dose (neurotoxicity) ([6]; man, per body surface, Dische et al): ≤ 12 g/m^2 | Dose to Give Equivalent Neurotoxicity Relative to MIS ([7]; four-and-one-half weeks): 1 | Mean Peak Tumor Concentration [8]: 0.56 μ moles.g^-1 | AUC ([9]; cerebrospinal fluid): 2660 µM·h | clearance ([9]; plasma): 1.5 mL/min/kg | AUC ([9]; plasma): 3680 µM·h | AUC PNS [9, 16]: 2.25 μ moles.hr.ml^ -1 or g^-1 | AUC Brain [9, 16]: 2.32 μ moles.hr.ml^ -1 or g^-1

O=C(Cn1ccnc1[N+](=O)[O-])NCCO [SR-2508, N-(2-hydroxyethyl)-2-(2-nitro-1-imidazolyl)acetamide]
tumor/brain ratio relative to MIS [10]: an order of magnitude greater than MIS | crossing of the blood/brain barrier relative to MIS [10]: to a lower degree than does MIS | LD50 [1]: 4900 mg/kg | octanol:water partition coefficient [11]: 0.046 | E7^1 (1-electron reduction potential) [2]: -388 mV | electron affinity relative to MIS [2]: similar | logP [3]: -1.34 | acute toxicity relative to MIS [5]: about three to five times less | radiosensitizing efficiency relative to MIS [12]: comparable radiosensitizing activity | clearance [13]: 3.5 mL/min/kg | factor by which less neurotoxic than MIS [7]: 3-5 | Dose to Give Equivalent Neurotoxicity Relative to MIS ([7]; four-and-one-half weeks): > 3.3 | solubility [14]: ~200 mg/mL (≈ 934 mM)

O=C(Cn1ccnc1[N+](=O)[O-])N(CCO)CCO [SR-2555, N,N-di-(2-hydroxyethyl)-2-(2-nitro-1-imidazolyl)acetamide]
tumor/brain ratio relative to MIS [10]: an order of magnitude greater than MIS | crossing of the blood/brain barrier relative to MIS [10]: to a lower degree than does MIS | LD50 [1]: > 7700 mg/kg | octanol:water partition coefficient [11]: 0.026 | E7^1 (1-electron reduction potential) [2]: -398 mV | electron affinity relative to MIS [2]: similar | logP [3]: -1.59 | acute toxicity relative to MIS [5]: about three to five times less | radiosensitizing efficiency relative to MIS [12]: comparable radiosensitizing activity | factor by which less neurotoxic than MIS [7]: 3-5 | Performance Relative to Controls ([7]; daily dose 3.0 mg/g, four-and-one-half weeks): 1.07 ± 0.16 | Dose to Give Equivalent Neurotoxicity Relative to MIS ([7]; four-and-one-half weeks): > 5 | solubility [14]: > 300 mg/mL | Mean Peak Tumor Concentration [8]: 1.30 μ moles.g^-1 | peak tumor concentration relative to MIS ([8]; dogs, i.v. bolus, in words): considerably higher than MIS | time of peak tumor concentration relative to MIS ([8]; dogs, i.v. bolus, in words): considerably earlier than MIS | AUC ([9]; cerebrospinal fluid, AUC CSF, dogs, standardized for 0.5 mmole/kg): 170 µM·h | clearance ([9]; plasma): 4.33 mL/min/kg | AUC ([9]; plasma, AUC Plasma, dogs, standardized for 0.5 mmole/kg): 1620 µM·h | clearance rate relative to MIS ([9]; dogs, in words): considerably more rapid than for MIS | penetration into brain, CSF and peripheral nerves relative to MIS ([9]; dogs, in words): considerably lower | total exposure of neural tissues (AUC) relative to MIS ([9]; dogs, in words): significantly smaller than for MIS | AUC PNS [9, 16]: 0.75 μ moles.hr.ml^ -1 or g^-1 | AUC Brain [9, 16]: 0.51 μ moles.hr.ml^ -1 or g^-1

CC(=O)OCCNC(=O)Cn1ccnc1[N+](=O)[O-] [acetate ester of SR-2508]
peak plasma concentration of SR-2508 or SR-2555 after oral ester relative to oral parent drug [15]: significantly higher

COC(=O)Cn1ccnc1[N+](=O)[O-] [methyl 2-nitroimidazole-1-acetate]
solubility [14]: 13.6 mg/mL (≈ 73.5 mM)
